From ChEMBL document CHEMBL1139276, “Diarylimidazolyl oxadiazole and thiadiazole derivatives as cannabinoid CB1 receptor antagonists” (Bioorg Med Chem Lett, 2009)

Molecular target: Cannabinoid receptor 1 (Rattus norvegicus, UniProt P20272)
Test: Displacement of [3H]CP-55940 from CB1 receptor in Sprague-Dawley rat cerebellar membrane
Design: species or system Cerebellum

Chain of Cannabinoid receptor 1 (P20272 whole entry): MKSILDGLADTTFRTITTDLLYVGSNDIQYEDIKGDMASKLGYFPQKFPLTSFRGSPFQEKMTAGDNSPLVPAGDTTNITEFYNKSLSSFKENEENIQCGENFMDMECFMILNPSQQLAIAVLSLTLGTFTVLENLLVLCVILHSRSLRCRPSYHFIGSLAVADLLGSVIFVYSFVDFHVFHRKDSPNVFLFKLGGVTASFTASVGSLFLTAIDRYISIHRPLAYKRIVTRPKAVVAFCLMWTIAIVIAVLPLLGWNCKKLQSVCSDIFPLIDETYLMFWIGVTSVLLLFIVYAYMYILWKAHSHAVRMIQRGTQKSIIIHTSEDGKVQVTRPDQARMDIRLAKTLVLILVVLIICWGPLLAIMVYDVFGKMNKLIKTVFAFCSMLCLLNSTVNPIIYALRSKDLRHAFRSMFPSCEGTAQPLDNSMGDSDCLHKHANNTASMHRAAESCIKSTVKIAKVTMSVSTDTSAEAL

SMILES	IC50
CCc1c(-c2nnc(C(C)(C)C)o2)nc(-c2ccccc2Cl)n1-c1ccc(Cl)cc1	0.0213 µM
Cc1c(-c2nnc(C3(c4ccc(Cl)cc4)CC3)s2)nc(-c2ccc(Cl)cc2Cl)n1-c1ccc(Cl)cc1	0.00941 µM
Cc1c(-c2nnc(C(C)(C)C)s2)nc(-c2ccccc2Cl)n1-c1ccc(Cl)cc1	0.0127 µM
Cc1c(-c2nnc(C(C)(C)C)o2)nc(-c2ccccc2Cl)n1-c1ccc(Cl)cc1	0.00529 µM

Continued, values first:

IC50	SMILES
0.00966 µM	Cc1c(-c2nnc(C3(C(F)(F)F)CCC3)s2)nc(-c2ccc(Cl)cc2Cl)n1-c1ccc(Cl)cc1
0.0394 µM	Cc1c(-c2nnc(CC(C)C)o2)nc(-c2ccc(Cl)cc2Cl)n1-c1ccc(Cl)cc1
0.0152 µM	Cc1c(-c2nnc(C3(c4ccc(Cl)cc4)CC3)o2)nc(-c2ccc(Cl)cc2Cl)n1-c1ccc(Cl)cc1
0.0281 µM	Cc1c(-c2nnc(CC(C)C)s2)nc(-c2ccc(Cl)cc2Cl)n1-c1ccc(Cl)cc1
0.0335 µM	Cc1c(-c2nnc(C3(C(F)(F)F)CC3)s2)nc(-c2ccc(Cl)cc2Cl)n1-c1ccc(Cl)cc1
0.0551 µM	Cc1c(-c2nnc(C3(C(F)(F)F)CC3)o2)nc(-c2ccc(Cl)cc2Cl)n1-c1ccc(Cl)cc1
0.0167 µM	Cc1c(-c2nnc(C3(C(F)(F)F)CCC3)o2)nc(-c2ccc(Cl)cc2Cl)n1-c1ccc(Cl)cc1

Molecular target: Cannabinoid receptor 2 (Homo sapiens, UniProt P34972)
Sequence (P34972 whole entry): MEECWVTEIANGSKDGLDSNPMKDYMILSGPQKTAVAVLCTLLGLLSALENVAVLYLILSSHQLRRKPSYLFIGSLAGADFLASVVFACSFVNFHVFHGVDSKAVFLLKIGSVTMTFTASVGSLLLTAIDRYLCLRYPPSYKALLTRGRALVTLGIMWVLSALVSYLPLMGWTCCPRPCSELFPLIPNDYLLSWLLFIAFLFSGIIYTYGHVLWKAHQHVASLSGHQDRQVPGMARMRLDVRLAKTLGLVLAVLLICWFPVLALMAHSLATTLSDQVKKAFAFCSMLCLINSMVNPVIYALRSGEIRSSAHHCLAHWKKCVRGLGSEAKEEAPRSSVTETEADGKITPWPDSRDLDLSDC
Test: Displacement of [3H]WIN-55212-2 from human CB2 receptor expressed in CHO cells
Assay type: cell-based

SMILES	IC50
CCc1c(-c2nnc(C3(c4ccc(Cl)cc4)CCC3)o2)nc(-c2ccc(Cl)cc2Cl)n1-c1ccc(Br)cc1	> 10 µM
CCc1c(-c2nnc(C3(c4ccc(Cl)cc4Cl)CC3)o2)nc(-c2ccc(Cl)cc2Cl)n1-c1ccc(Br)cc1	> 10 µM
CCc1c(-c2nnc(C3(c4ccc(C)cc4)CC3)s2)nc(-c2ccc(Cl)cc2Cl)n1-c1ccc(Br)cc1	> 10 µM
CCc1c(-c2nnc(C3(c4ccccc4)CC3)s2)nc(-c2ccc(Cl)cc2Cl)n1-c1ccc(Br)cc1	> 10 µM
CCc1c(-c2nnc(C3(c4ccc(OC)cc4)CC3)s2)nc(-c2ccc(Cl)cc2Cl)n1-c1ccc(Br)cc1	> 10 µM
CCc1c(-c2nnc(C3(c4ccc(C)cc4)CC3)o2)nc(-c2ccc(Cl)cc2Cl)n1-c1ccc(Br)cc1	> 10 µM

Second part, the molecule after the results:

IC50	SMILES
> 10 µM	CCc1c(-c2nnc(C3(c4ccc(Cl)cc4)CCC3)s2)nc(-c2ccc(Cl)cc2Cl)n1-c1ccc(Br)cc1
> 10 µM	CCc1c(-c2nnc(C3(c4ccc(Cl)cc4Cl)CC3)s2)nc(-c2ccc(Cl)cc2Cl)n1-c1ccc(Br)cc1
> 10 µM	CCc1c(-c2nnc(C3(c4ccc(Cl)cc4)CC3)s2)nc(-c2ccc(Cl)cc2Cl)n1-c1ccc(Br)cc1
